Where two headings read alike, the source gives them in different places.
What was measured:
[1] = biological target: recombinant Plk1 (Homo sapiens, UniProt P53350); test: In Vitro Plk1 Enzyme Assay (SPA, GST-Cdc25C phosphorylation); format: biochemical; conditions: ATP 64 nM, 90 minutes, read-out: IC50 (Plk1 enzyme inhibition)
[2] = test system: human colon tumour cell line HT29; test: Cellular Assay (phosphohistone H3 Ser10 mitotic marker, HT29); format: cell-based; conditions: HT-29, 24 h, HT29 cells
[3] = read-out: IC50 (cellular assay, phosphohistone H3)

recombinant Plk1, sequence (P53350 whole entry): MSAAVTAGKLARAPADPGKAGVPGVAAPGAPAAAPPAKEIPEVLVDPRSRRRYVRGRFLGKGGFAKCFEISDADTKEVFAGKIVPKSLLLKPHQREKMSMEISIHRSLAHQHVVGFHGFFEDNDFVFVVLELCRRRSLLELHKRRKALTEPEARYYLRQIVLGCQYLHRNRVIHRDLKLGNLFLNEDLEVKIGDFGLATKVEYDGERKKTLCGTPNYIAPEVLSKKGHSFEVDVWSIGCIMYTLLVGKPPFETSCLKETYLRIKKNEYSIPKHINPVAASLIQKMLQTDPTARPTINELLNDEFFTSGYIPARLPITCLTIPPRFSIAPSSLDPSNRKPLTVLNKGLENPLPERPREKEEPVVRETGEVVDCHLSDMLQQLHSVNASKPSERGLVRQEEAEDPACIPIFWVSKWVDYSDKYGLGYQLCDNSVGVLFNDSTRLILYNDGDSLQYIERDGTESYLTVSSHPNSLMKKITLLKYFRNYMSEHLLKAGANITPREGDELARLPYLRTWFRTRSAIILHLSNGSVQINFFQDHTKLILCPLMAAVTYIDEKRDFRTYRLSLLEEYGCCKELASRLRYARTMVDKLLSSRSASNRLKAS

IC50 [1] [nM]	IC50 [2, 3] [nM]	IC50 ([2]; read-out: Cell IC50) [nM]	SMILES
< 1000	< 300	–	COc1cc(C(=O)NCc2cccnc2)ccc1Nc1ncc2c(n1)N(C1CCCC1)CCC(=O)N2C [Example 76, 4-[(6-cyclopentyl-2-methyl-3-oxo-2,6,8,10-tetrazabicyclo[5.4.0]undeca-8,10,12-trien-9-yl)amino]-3-methoxy-N-(pyridin-3-ylmethyl)benzamide]
< 100000	< 30000	–	CN1CCC(NC(=O)c2cnc(Nc3ncc4c(n3)N(C3CCCC3)CCC(=O)N4C)o2)CC1 [Example 264, 2-[(6-cyclopentyl-2-methyl-3-oxo-2,6,8,10-tetrazabicyclo[5.4.0]undeca-8,10,12-trien-9-yl)amino]-N-(1-methyl-4-piperidyl)1,3-oxazole-5-carboxamide]
< 300	< 300	–	COc1cc(C(=O)NCC(C)(C)CN)ccc1Nc1ncc2c(n1)N(C1CCCC1)CCC(=O)N2C [Example 46, N-(3-amino-2,2-dimethyl-propyl)-4-[(6-cyclopentyl-2-methyl-3-oxo-2,6,8,10-tetrazabicyclo[5.4.0]undeca-8,10,12-trien-9-yl)amino]-3-methoxy-benzamide]
< 300	< 1000	–	COc1cc(C(=O)NC2CCN(C)CC2)ccc1Nc1ncc2c(n1)N(C1CCCC1)C(C)CC(=O)N2C (centres unmarked) [Example 234, 4-[(6-cyclopentyl-2,5-dimethyl-3-oxo-2,6,8,10-tetrazabicyclo[5.4.0]undeca-8,10,12-trien-9-yl)amino]-3-methoxy-N-(1-methyl-4-piperidyl)benzamide]
< 1000	< 300	–	CCN1CCC(NC(=O)c2cc(Cl)c(Nc3ncc4c(n3)N(C3CCCC3)CCC(=O)N4C)cc2F)CC1 [Example 323, 5-chloro-4-[(2-cyclopentyl-6-methyl-5-oxo-2,6,9,11-tetrazabicyclo[5.4.0]undeca-7,9,11-trien-10-yl)amino]-N-(1-ethyl-4-piperidyl)-2-fluoro-benzamide]
< 300	< 300	92	COc1cc(C(=O)NCCN(C)C)ccc1Nc1ncc2c(n1)N(C1CCCC1)CCC(=O)N2C [Example 14, 4-[(6-cyclopentyl-2-methyl-3-oxo-2,6,8,10-tetrazabicyclo[5.4.0]undeca-8,10,12-trien-9-yl)amino]-N-(2-dimethylaminoethyl)-3-methoxy-benzamide]
< 1000	< 1000	–	CC(C)Oc1cc(C(=O)NC2CCN(C)CC2)ccc1Nc1ncc2c(n1)N(C1CCCC1)CCC(=O)N2C [Example 197, 4-[(6-cyclopentyl-2-methyl-3-oxo-2,6,8,10-tetrazabicyclo[5.4.0]undeca-8,10,12-trien-9-yl)amino]-N-(1-methyl-4-piperidyl)-3-propan-2-yloxy-benzamide]
< 300	< 300	–	CCN(CC)CCCNC(=O)c1ccc(Nc2ncc3c(n2)N(C2CCCC2)CCC(=O)N3C)c(OC)c1 [Example 78, 4-[(6-cyclopentyl-2-methyl-3-oxo-2,6,8,10-tetrazabicyclo[5.4.0]undeca-8,10,12-trien-9-yl)amino]-N-(3-diethylaminopropyl)-3-methoxy-benzamide]
< 1000	< 300	–	COc1cc(C(=O)NCCN2CC3CCC(C2)O3)ccc1Nc1ncc2c(n1)N(C1CCCC1)CCC(=O)N2C [Example 32, 4-[(6-cyclopentyl-2-methyl-3-oxo-2,6,8,10-tetrazabicyclo[5.4.0]undeca-8,10,12-trien-9-yl)amino]-3-methoxy-N-[2-(8-oxa-3-azabicyclo[3.2.1]oct-3-yl)ethyl]benzamide]
< 1000	< 1000	–	CCOc1cc(C(=O)NC2CCN(CC)CC2)ccc1Nc1ncc2c(n1)N(C(C)C)CCC(=O)N2C [Example 282, 3-ethoxy-N-(1-ethyl-4-piperidyl)-4-[(6-methyl-5-oxo-2-propan-2-yl-2,6,9,11-tetrazabicyclo[5.4.0]undeca-7,9,11-trien-10-yl)amino]benzamide]
< 1000	< 300	–	CCCNC(=O)c1ccc(Nc2ncc3c(n2)N(C2CCCC2)CCC(=O)N3C)c(OC)c1 [Example 93, 4-[(6-cyclopentyl-2-methyl-3-oxo-2,6,8,10-tetrazabicyclo[5.4.0]undeca-8,10,12-trien-9-yl)amino]-3-methoxy-N-propyl-benzamide]
< 300	< 300	–	COc1cc(C(=O)NC2CCN(C)CC2)ccc1Nc1ncc2c(n1)N(C1CCCC1)CC(C)C(=O)N2C (single isomer, unassigned) [Example 240]
< 300	< 300	–	COc1cc(C(=O)NC[C@@H]2CCCN2CC2CC2)ccc1Nc1ncc2c(n1)N(C1CCCC1)CCC(=O)N2C [Example 82, 4-[(6-cyclopentyl-2-methyl-3-oxo-2,6,8,10-tetrazabicyclo[5.4.0]undeca-8,10,12-trien-9-yl)amino]-N-[[(2S)-1-(cyclopropylmethyl)pyrrolidin-2-yl]methyl]-3-methoxy-benzamide]
< 300	< 300	–	COc1cc(C(=O)NCCCN(C)C)ccc1Nc1ncc2c(n1)N(C1CCCCC1)CC1(CC1)C(=O)N2C [Example 431, 4-(9′-cyclohexyl-5′-methyl-6′-oxo-5′,6′,8′,9′-tetrahydrospiro[cyclopropane-1,7′-pyrimido[5,4-b][1,4]diazepine]-2′-ylamino)-N-(3-dimethylaminopropyl)-3-methoxy-benzamide]
< 300	< 300	–	COc1cc(C(=O)NC2CCN(C)CC2)ccc1Nc1ncc2c(n1)N(C1CCCC1)CC1(CC1)C(=O)N2C [Example 246, 4-(9′-cyclopentyl-5′-methyl-6′-oxo-5′,6′,8′,9′-tetrahydrospiro[cyclopropane-1,7′-pyrimido[5,4-b][1,4]diazepine]-2′-ylamino)-N-(1-methylpiperidin-4-yl)-3-methoxybenzamide]
< 300	< 300	–	COc1cc(C(=O)NCCN2CCOCC2)ccc1Nc1ncc2c(n1)N(C1CCCC1)CCC(=O)N2C [Example 13, 4-[(6-cyclopentyl-2-methyl-3-oxo-2,6,8,10-tetrazabicyclo[5.4.0]undeca-8,10,12-trien-9-yl)amino]-3-methoxy-N-(2-morpholin-4-ylethyl)benzamide]
< 100000	< 300	–	COc1cc(C(=O)NCCN2CCCCC2)ccc1Nc1ncc2c(n1)N(C(C)C)CCC(=O)N2C [Example 205, 3-methoxy-4-[(2-methyl-3-oxo-6-propan-2-yl-2,6,8,10-tetrazabicyclo[5.4.0]undeca-7,9,11-trien-9-yl)amino]-N-[2-(1-piperidyl)ethyl]benzamide]
< 1000	< 30000	–	COc1cc(C(=O)NC2CCN(C)CC2)ccc1Nc1ncc2c(n1)N(C1CCCC1=O)CCC(=O)N2C (centres unmarked) [Example 410, 3-methoxy-4-[[6-methyl-5-oxo-2-(2-oxocyclopentyl)-2,6,9,11-tetrazabicyclo[5.4.0]undeca-7,9,11-trien-10-yl]amino]-N-(1-methyl-4-piperidyl)benzamide]
< 1000	< 1000	–	CN1C(=O)CCN(C2CCCC2)c2nc(Nc3ccc(C(=O)NCCN4CCOCC4)cc3Cl)ncc21 [Example 184, 3-chloro-4-[(6-cyclopentyl-2-methyl-3-oxo-2,6,8,10-tetrazabicyclo[5.4.0]undeca-8,10,12-trien-9-yl)amino]-N-(2-morpholin-4-ylethyl)benzamide]
< 300	< 300	–	CCN(CC)C1CCC(NC(=O)c2ccc(Nc3ncc4c(n3)N(C3CCCC3)CCC(=O)N4C)c(OC)c2)CC1 (centres unmarked) [Example 58, 4-[(6-cyclopentyl-2-methyl-3-oxo-2,6,8,10-tetrazabicyclo[5.4.0]undeca-8,10,12-trien-9-yl)amino]-N-(4-diethylaminocyclohexyl)-3-methoxy-benzamide]
< 300	< 300	–	COc1cc(C(=O)NCC2(CN3CCCC3)CC2)ccc1Nc1ncc2c(n1)N(C1CCCC1)CCC(=O)N2C [Example 83, 4-[(6-cyclopentyl-2-methyl-3-oxo-2,6,8,10-tetrazabicyclo[5.4.0]undeca-8,10,12-trien-9-yl)amino]-3-methoxy-N-[[1-(pyrrolidin-1-ylmethyl)cyclopropyl]methyl]benzamide]
< 100000	< 30000	–	CN1CCC(NC(=O)c2c(F)cc(Nc3ncc4c(n3)N(C3CCCC3)CCC(=O)N4C)cc2F)CC1 [Example 187, 4-[(6-cyclopentyl-2-methyl-3-oxo-2,6,8,10-tetrazabicyclo[5.4.0]undeca-8,10,12-trien-9-yl)amino]-2,6-difluoro-N-(1-methyl-4-piperidyl)benzamide]
< 1000	< 30000	–	COc1cc(OCCN2CCOCC2)ccc1Nc1ncc2c(n1)N(C1CCCC1)CCC(=O)N2C [Example 115, 6-cyclopentyl-9-[[2-methoxy-4-(2-morpholin-4-ylethoxy)phenyl]amino]-2-methyl-2,6,8,10-tetrazabicyclo[5.4.0]undeca-8,10,12-trien-3-one]
< 100000	< 1000	–	COc1cc(C(=O)N[C@H]2CCN(C(=O)OC(C)(C)C)C2)ccc1Nc1ncc2c(n1)N(C1CCCC1)CCC(=O)N2C [Example 53, tert-butyl (3S)-3-[[4-[(6-cyclopentyl-2-methyl-3-oxo-2,6,8,10-tetrazabicyclo[5.4.0]undeca-8,10,12-trien-9-yl)amino]-3-methoxy-benzoyl]amino]pyrrolidine-1-carboxylate]
< 1000	< 300	–	COc1cc(C(=O)NC(C)C)ccc1Nc1ncc2c(n1)N(C1CCCC1)CCC(=O)N2C [Example 95, 4-[(6-cyclopentyl-2-methyl-3-oxo-2,6,8,10-tetrazabicyclo[5.4.0]undeca-8,10,12-trien-9-yl)amino]-3-methoxy-N-propan-2-yl-benzamide]

SMILES	IC50 [1] [nM]	IC50 [2, 3] [nM]	IC50 ([2]; read-out: Cell IC50) [nM]
COc1cc(C(=O)N[C@H]2C[C@H]3CCC[C@@H](C2)N3C)ccc1Nc1ncc2c(n1)N(C1CCCC1)CCC(=O)N2C [Example 59, 4-[(6-cyclopentyl-2-methyl-3-oxo-2,6,8,10-tetrazabicyclo[5.4.0]undeca-8,10,12-trien-9-yl)amino]-3-methoxy-N-[(1S,5R)-9-methyl-9-azabicyclo[3.3.1]non-7-yl]benzamide]	< 300	< 300	–
